Laboratory results from paper PMC9456400 (International Journal of Molecular Sciences, 2022).

Experiments:
HepG2 cells = assay: Oil Red O staining of neutral lipids; assay type: cell-based, human; conditions: HepG2, acute exposure 48 h; silibinin 100 μmol/L as co-treatment with lorlatinib
Protocol: To confirm these findings, we employed an independent in vitro model of fatty liver disease involving non-tumorigenic HepG2 cells, which are routinely employed as an inducible fatty liver cell model to screen for therapeutic drugs to eliminate lipid accumulation.
For assessment of neutral lipid formation, cells were washed in PBS, fixed with 4% paraformaldehyde for 30 min, washed in distilled water, and then briefly incubated in 60% isopropanol. Following equilibration, cells were stained with a working solution (60%) of Oil Red O for 20 min. An Oil Red O stock solution was prepared by dissolving 0.35% w/v Oil Red O in 100 mL 100% isopropanol. HCS LipidTOX™ Green Neutral Lipid Stain (Invitrogen; Cat. #H34475) was employed as a second staining cocktail for visualization of intracellular neutral lipids. Formaldehyde fixation and preparing/using the labeling solution was carried out as per the manufacturer’s instructions.

[1] = cited from earlier work
[2] = tested on: ALK-negative A549 NSCLC cells; assay: MTT cell viability assay; conditions: read-out: IC50 (cell viability)
Protocol: Cell viability effects of lorlatinib were determined using the colorimetric MTT (3-4,5-dimethylthiazol-2-yl-2,5-diphenyl-tetrazolium bromide) reduction assay. Dose–response curves to graded concentrations of lorlatinib were plotted as a percentage of the control cell absorbance, which was obtained from control cells containing the vehicle (DMSO v/v) processed simultaneously. For each treatment, cell viability was evaluated using the following equation: (OD570 of the treated sample/OD570 of the untreated sample) × 100.

[3] = single 100 mg oral dose ref 46, 47

In the case of C[C@H]1Oc2cc(cnc2N)-c2c(nn(C)c2C#N)CN(C)C(=O)c2ccc(F)cc21 [lorlatinib, (10R)-7-amino-12-fluoro-2,10,16-trimethyl-15-oxo-10,15,16,17-tetrahydro-2H-8,4-(metheno)pyrazolo [4,3-h][2,5,11]-benzoxadiazacyclotetradecine-3-carbonitrile], the “Accumulation of neutral lipids (lipid droplets)” value (HepG2 cells) is listed as “greater number of larger lipid droplets than untreated cells”, the “Fraction metabolized during first-pass hepatic or pre-systemic metabolism” value ([1]; human, in vivo) is listed as 12% and the Hepatic extraction ratio ([1]; human, in vivo) is listed as less than 30%. The Peak plasma concentration [1, 3] was greater than 2 µmol/L, the “Time to peak plasma concentration” value [1, 3] was 0.5 to 4 h and the IC50 [2] was 19 ± 5 µM.
